Experimental data: PubChem BioAssay (NCI)
Values joined by “and” are separate entries in the source; they are usually repeats but may differ in a detail not shown here. Equal values may be shown once.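 Method: 48-hour compound exposure of cells in 96-well plates, five concentrations, linear interpolation of endpoints. Abbreviation: GI50, concentration required for 50% inhibition of growth. TGI is the concentration that stops growth completely.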

Assays:
Experiment in all cases: NCI tumour cell line growth inhibition, 48 h
MALME-3M melanoma = test system: MALME-3M melanoma
HCT-15 colon = test system: HCT-15 colon
ACHN renal = test system: ACHN renal
SN12C renal = test system: SN12C renal
OVCAR-3 ovarian = test system: OVCAR-3 ovarian
HT29 colon = test system: HT29 colon
NCI-H522 lung = test system: NCI-H522 lung
SR leukemia = test system: SR leukemia
RPMI-8226 leukemia = test system: RPMI-8226 leukemia
OVCAR-8 ovarian = test system: OVCAR-8 ovarian

| Compound | GI50 (MALME-3M melanoma) [µM] | TGI (MALME-3M melanoma) [µM] | GI50 (HCT-15 colon) [µM] | TGI (HCT-15 colon) [µM] | GI50 (ACHN renal) [µM] | TGI (ACHN renal) [µM] | GI50 (SN12C renal) [µM] | TGI (SN12C renal) [µM] | GI50 (OVCAR-3 ovarian) [µM] | TGI (OVCAR-3 ovarian) [µM] | GI50 (HT29 colon) [µM] | TGI (HT29 colon) [µM] | GI50 (NCI-H522 lung) [µM] | TGI (NCI-H522 lung) [µM] | GI50 (SR leukemia) [µM] | TGI (SR leukemia) [µM] | GI50 (RPMI-8226 leukemia) | TGI (RPMI-8226 leukemia) | GI50 (OVCAR-8 ovarian) [µM] | TGI (OVCAR-8 ovarian) [µM] |
| --- | --- | --- | --- | --- | --- | --- | --- | --- | --- | --- | --- | --- | --- | --- | --- | --- | --- | --- | --- | --- |
| COc1cc(-n2cc(-c3ccccc3)[nH]c2=O)cc(OC)c1OC | 33.7 | > 100 | 85.2 | > 100 | 45.5 | > 100 | 47.6 | > 100 | 23.2 | > 100 | > 100 | > 100 | 27.2 | > 100 | > 100 | > 100 | > 100 µM | > 100 µM |  |  |
| O=C(Nc1cccc(-n2cc(-c3ccncc3)c(-c3ccc(O)c(Cl)c3)n2)c1)c1ccc2c(c1)OCCO2 | > 100 | > 100 | 3.7 | > 100 | 7.38 | > 100 | 55.7 | > 100 |  |  | 7.03 | > 100 | 6.25 | > 100 | 2.46 | > 100 | 2.19 µM | > 100 µM | 3.67 | > 100 |
| N#Cc1cnc2cc(OC[C@@H](O)CO)c(NC(=O)C3CCCC3)cc2c1Nc1ccc(OCc2cccc(F)c2)c(Cl)c1 |  |  | 2.45 | > 50 | 3.01 | > 50 | 1.88 | 28.6 | 0.874 | 1.82 | 1.39 | 3.84 | 0.568 | 1.34 | 1.24 | > 50 | 0.728 µM | 3.12 µM | 1.16 | 3.01 |
| C/C=C/C/C=C/[C@H](C)C[C@H](O)[C@@H]1C[C@@H]2O[C@H]2/C=C/[C@@H]2OC(C)(C)O[C@H]2/C=C/C[C@H](C)CC(=O)O1 |  |  | 4.84 | > 100 | 6.05 | > 100 | 5.23 | > 100 | 12.4 | > 100 | 12 | > 100 | 3.6 | 31.9 | 8.08 | > 100 | 3.16 µM | 37 µM | 3.7 | > 100 |
| CC(=O)Oc1ccc2c(c1)[C@@]1(C)CCCC(C)(C)[C@@H]1CC2 |  |  | 19.5 | 37.3 | 19.1 | 33.5 | 18.6 | 33.1 | 15.8 | 41.1 | 31.7 | > 100 | 24.2 | 69.2 | > 100 | > 100 | 12.1 µM | 30.3 µM | 18.8 | 41.6 |
| CCCCC(C)/C=C/C(=O)C1=C(O)/C(=C/C(=O)O)OC1=O (configuration not stated) |  | > 100 |  | > 100 |  | > 100 |  | > 100 |  | > 100 |  | > 100 |  |  |  | > 100 |  | > 100 µM |  | > 100 |
| C=C1c2ccccc2C(=O)c2c1c1c(C(=O)OC)c(OC(=O)OCc3ccc([N+](=O)[O-])cc3)ccc1n2Cc1ccccc1 | 36 | > 100 | 34.3 | > 100 | 55.9 | > 100 | 11 | 42.6 | 2.39 | 8.05 |  |  | 6.83 | 38.6 | 2.59 | > 100 | 2.3 µM | 13.1 µM | 2.51 | > 100 |
| CCC/C=C\C=C\C1(NS(=O)(=O)c2ccc(C)cc2)CCC(C(C)(C)C)CC1 (configuration not stated) |  | 47.9 |  | 43.8 |  | 53.7 |  | 23.5 |  | 21.9 |  | 30.2 |  | 12.1 |  | 14.8 |  | 27.2 µM |  |  |
| C/C(=N\NC(N)=S)c1ccc(C)c(C)c1 |  | 94.1 |  | > 100 |  | > 100 |  | > 100 |  | 66.7 |  | 98.9 |  |  |  | > 100 |  | > 100 µM |  | > 100 |
| Nc1ncnc2c1ncn2C1OC(COS(N)(=O)=O)C(O)C1O (configuration not stated) |  |  | 0.00255 | 0.0071 |  |  | < 0.001 |  |  |  |  |  |  | 0.0148 | < 0.001 | 0.0136 | 0.00287 µM and 0.0283 µM | 0.265 µM and 0.0661 µM | < 0.001 | 0.00394 |
| COc1ccc(C(C)c2cc(OC)c(OC)c(OC)c2)cc1 (configuration not stated) |  |  | 0.088 | > 50 | 0.341 | > 50 | 0.546 | > 50 | 0.0889 | 0.384 | 0.107 | > 50 | 0.133 | > 50 | 0.0303 | > 50 | 0.209 µM | > 50 µM | 0.263 | > 50 |
| CCc1cccc(C(C)C)c1NC(=O)CCl |  | > 100 |  | > 100 |  | > 100 |  | > 100 |  | > 100 |  | > 100 |  | > 100 |  | > 100 |  | > 100 µM |  |  |
